Source: ChEMBL document CHEMBL1201862, “PubChem BioAssay data set” (2004)
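How tested: cells in 96-well plates exposed to compound for 48 hours at five concentrations. Here, GI50 denotes the concentration required for 50% inhibition of growth.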 Activity calls are given as the source filed them. Cut-off read from the data, not from the text of the source: active = GI50 up to about 1.1 µM and inactive = higher.

Tests used:
Assay in all cases: DTP human tumour cell line panel, 48 h
786-0 = test system: 786-0
A498 = test system: A498
A549 = test system: A549
ACHN = test system: ACHN
CAKI-1 = test system: CAKI-1
CCRF-CEM = test system: CCRF-CEM
COLO 205 = test system: COLO 205
DLD-1 = test system: DLD-1
DMS-114 = test system: DMS-114
EKVX = test system: EKVX
HCC 2998 = test system: HCC 2998
HCT-15 = test system: HCT-15
HL-60 = test system: HL-60
HOP-62 = test system: HOP-62
HOP-92 = test system: HOP-92
HT-29 = test system: HT-29
IGROV-1 = test system: IGROV-1
K562 = test system: K562
KM-20L2 = test system: KM-20L2
KM12 = test system: KM12
LOX IMVI = test system: LOX IMVI
LXFL 529 = test system: LXFL 529
M14 = test system: M14
M19-MEL = test system: M19-MEL
MOLT-4 = test system: MOLT-4
Malme-3M = test system: Malme-3M
NCI-H226 = test system: NCI-H226
NCI-H23 = test system: NCI-H23
NCI-H460 = test system: NCI-H460
NCI-H522 = test system: NCI-H522
OVCAR-3 = test system: OVCAR-3
OVCAR-4 = test system: OVCAR-4
OVCAR-5 = test system: OVCAR-5
OVCAR-8 = test system: OVCAR-8
RPMI-8226 = test system: RPMI-8226
RXF 393 = test system: RXF 393
RXF 631 = test system: RXF 631
SF-268 = test system: SF-268
SF-295 = test system: SF-295
SF-539 = test system: SF-539
SK-MEL-28 = test system: SK-MEL-28
SK-MEL-2 = test system: SK-MEL-2
SK-MEL-5 = test system: SK-MEL-5
SK-OV-3 = test system: SK-OV-3
SN12C = test system: SN12C
SNB-75 = test system: SNB-75
SNB-78 = test system: SNB-78
SW-620 = test system: SW-620
TK-10 = test system: TK-10
U-251 = test system: U-251
UACC-257 = test system: UACC-257
UACC-62 = test system: UACC-62
UO-31 = test system: UO-31
XF498 = test system: XF498
DMS-273 = test system: DMS-273
HCT-116 = test system: HCT-116
HOP-18 = test system: HOP-18
SNB-19 = test system: SNB-19
SR = test system: SR

SMILES: O=C1CCC2(c3ccccc3)Nc3ccc(Cl)cc3N12 (configuration not stated)
- GI50 (786-0): > 100 µM (inactive)
- GI50 (A498): > 100 µM (inactive)
- GI50 (A549): > 100 µM (inactive)
- GI50 (ACHN): > 100 µM (inactive)
- GI50 (CAKI-1): > 100 µM (inactive)
- GI50 (CCRF-CEM): > 100 µM (inactive)
- GI50 (COLO 205): > 100 µM (inactive)
- GI50 (DLD-1): > 100 µM (inactive)
- GI50 (DMS-114): 63.5 µM (inactive)
- GI50 (EKVX): > 100 µM (inactive)
- GI50 (HCC 2998): > 100 µM (inactive)
- GI50 (HCT-15): > 100 µM
- GI50 (HL-60): > 100 µM (inactive)
- GI50 (HOP-62): > 100 µM (inactive)
- GI50 (HOP-92): 84.5 µM (inactive)
- GI50 (HT-29): > 100 µM (inactive)
- GI50 (IGROV-1): > 100 µM (inactive)
- GI50 (K562): 77.8 µM (inactive)
- GI50 (KM-20L2): > 100 µM (inactive)
- GI50 (KM12): > 100 µM (inactive)
- GI50 (LOX IMVI): > 100 µM (inactive)
- GI50 (LXFL 529): > 100 µM (inactive)
- GI50 (M14): > 100 µM (inactive)
- GI50 (M19-MEL): > 100 µM (inactive)
- GI50 (MOLT-4): > 100 µM (inactive)
- GI50 (Malme-3M): > 100 µM (inactive)
- GI50 (NCI-H226): > 100 µM (inactive)
- GI50 (NCI-H23): > 100 µM (inactive)
- GI50 (NCI-H460): > 100 µM (inactive)
- GI50 (NCI-H522): > 100 µM (inactive)
- GI50 (OVCAR-3): > 100 µM (inactive)
- GI50 (OVCAR-4): > 100 µM (inactive)
- GI50 (OVCAR-5): > 100 µM (inactive)
- GI50 (OVCAR-8): > 100 µM (inactive)
- GI50 (RPMI-8226): > 100 µM (inactive)
- GI50 (RXF 393): > 100 µM (inactive)
- GI50 (RXF 631): > 100 µM (inactive)
- GI50 (SF-268): > 100 µM (inactive)
- GI50 (SF-295): > 100 µM (inactive)
- GI50 (SF-539): > 100 µM (inactive)
- GI50 (SK-MEL-28): > 100 µM (inactive)
- GI50 (SK-MEL-2): > 100 µM (inactive)
- GI50 (SK-MEL-5): > 100 µM (inactive)
- GI50 (SK-OV-3): > 100 µM (inactive)
- GI50 (SN12C): > 100 µM (inactive)
- GI50 (SNB-75): 37.7 µM (inactive)
- GI50 (SNB-78): > 100 µM (inactive)
- GI50 (SW-620): > 100 µM (inactive)
- GI50 (TK-10): > 100 µM (inactive)
- GI50 (U-251): > 100 µM (inactive)
- GI50 (UACC-257): > 100 µM (inactive)
- GI50 (UACC-62): > 100 µM (inactive)
- GI50 (UO-31): > 100 µM (inactive)
- GI50 (XF498): > 100 µM (inactive)

SMILES: COc1cc2c(cc1OC)C(Cc1ccc(Oc3cc(CC4c5cc(OC)c(OC)cc5CCN4C)ccc3O)cc1)N(C)CC2 (configuration not stated)
- GI50 (786-0): 13.5 µM (inactive)
- GI50 (A498): 22 µM (inactive)
- GI50 (A549): 35.2 µM (inactive)
- GI50 (ACHN): 16.5 µM (inactive)
- GI50 (CAKI-1): 21.7 µM (inactive)
- GI50 (CCRF-CEM): 12.7 µM (inactive)
- GI50 (COLO 205): 11.3 µM (inactive)
- GI50 (DLD-1): 18.7 µM (inactive)
- GI50 (DMS-114): 16.3 µM (inactive)
- GI50 (DMS-273): 21.7 µM (inactive)
- GI50 (EKVX): 88.5 µM (inactive)
- GI50 (HCC 2998): 14.3 µM (inactive)
- GI50 (HCT-116): 10.3 µM (inactive)
- GI50 (HCT-15): 15.6 µM
- GI50 (HL-60): 13.4 µM (inactive)
- GI50 (HOP-18): 26.5 µM (inactive)
- GI50 (HOP-62): 24.3 µM (inactive)
- GI50 (HOP-92): 24.3 µM (inactive)
- GI50 (HT-29): 13.1 µM (inactive)
- GI50 (IGROV-1): 23.1 µM (inactive)
- GI50 (K562): 10.2 µM (inactive)
- GI50 (KM-20L2): 13.1 µM (inactive)
- GI50 (KM12): 21.9 µM (inactive)
- GI50 (LOX IMVI): 17.4 µM (inactive)
- GI50 (LXFL 529): 14.8 µM (inactive)
- GI50 (M14): 15.2 µM (inactive)
- GI50 (M19-MEL): 21 µM (inactive)
- GI50 (MOLT-4): 14.2 µM (inactive)
- GI50 (Malme-3M): 19.5 µM (inactive)
- GI50 (NCI-H226): 22.8 µM (inactive)
- GI50 (NCI-H23): 51.2 µM (inactive)
- GI50 (NCI-H460): 27.9 µM (inactive)
- GI50 (NCI-H522): 12 µM (inactive)
- GI50 (OVCAR-3): 19.5 µM (inactive)
- GI50 (OVCAR-4): 20.5 µM (inactive)
- GI50 (OVCAR-5): > 100 µM (inactive)
- GI50 (OVCAR-8): 87.3 µM (inactive)
- GI50 (RPMI-8226): 16.9 µM (inactive)
- GI50 (RXF 393): 11.9 µM (inactive)
- GI50 (SF-268): 14.2 µM (inactive)
- GI50 (SF-295): 26.4 µM (inactive)
- GI50 (SF-539): 16.3 µM (inactive)
- GI50 (SK-MEL-28): 16.1 µM (inactive)
- GI50 (SK-MEL-2): 16.1 µM (inactive)
- GI50 (SK-MEL-5): 15.7 µM (inactive)
- GI50 (SK-OV-3): 35.3 µM (inactive)
- GI50 (SN12C): 25.8 µM (inactive)
- GI50 (SNB-19): 40.6 µM (inactive)
- GI50 (SNB-75): 14.8 µM (inactive)
- GI50 (SNB-78): 28.5 µM (inactive)
- GI50 (SR): 1.79 µM (inactive)
- GI50 (SW-620): 16.6 µM (inactive)
- GI50 (TK-10): 52.7 µM (inactive)
- GI50 (U-251): 16.9 µM (inactive)
- GI50 (UACC-257): 16.2 µM (inactive)
- GI50 (UACC-62): 17.4 µM (inactive)
- GI50 (UO-31): 14.5 µM (inactive)
- GI50 (XF498): 18.3 µM (inactive)

SMILES: O=C1C(Cl)C(c2ccc(Cl)cc2)N1n1cnc2ccccc2c1=O (configuration not stated)
- GI50 (786-0): > 100 µM (inactive)
- GI50 (A549): > 100 µM (inactive)
- GI50 (ACHN): > 100 µM (inactive)
- GI50 (CAKI-1): 40.8 µM (inactive)
- GI50 (CCRF-CEM): 48.6 µM (inactive)
- GI50 (COLO 205): > 100 µM (inactive)
- GI50 (DLD-1): > 100 µM (inactive)
- GI50 (DMS-114): 42.3 µM (inactive)
- GI50 (DMS-273): 30.3 µM (inactive)
- GI50 (EKVX): 14.5 µM (inactive)
- GI50 (HCC 2998): > 100 µM (inactive)
- GI50 (HCT-116): > 100 µM (inactive)
- GI50 (HCT-15): 92 µM
- GI50 (HL-60): 39 µM (inactive)
- GI50 (HOP-18): 57.5 µM (inactive)
- GI50 (HOP-62): > 100 µM (inactive)
- GI50 (HT-29): > 100 µM (inactive)
- GI50 (IGROV-1): 96.2 µM (inactive)
- GI50 (K562): 35.6 µM (inactive)
- GI50 (KM-20L2): > 100 µM (inactive)
- GI50 (KM12): 24.8 µM (inactive)
- GI50 (LOX IMVI): 70.5 µM (inactive)
- GI50 (LXFL 529): 72.4 µM (inactive)
- GI50 (M14): > 100 µM (inactive)
- GI50 (M19-MEL): > 100 µM (inactive)
- GI50 (MOLT-4): 88.9 µM (inactive)
- GI50 (Malme-3M): > 100 µM (inactive)
- GI50 (NCI-H226): > 100 µM (inactive)
- GI50 (NCI-H23): > 100 µM (inactive)
- GI50 (NCI-H460): > 100 µM (inactive)
- GI50 (NCI-H522): 55.2 µM (inactive)
- GI50 (OVCAR-3): > 100 µM (inactive)
- GI50 (OVCAR-4): > 100 µM (inactive)
- GI50 (OVCAR-5): > 100 µM (inactive)
- GI50 (OVCAR-8): > 100 µM (inactive)
- GI50 (RPMI-8226): 40.6 µM (inactive)
- GI50 (RXF 393): 76 µM (inactive)
- GI50 (SF-268): > 100 µM (inactive)
- GI50 (SF-295): 82.8 µM (inactive)
- GI50 (SK-MEL-28): > 100 µM (inactive)
- GI50 (SK-MEL-2): > 100 µM (inactive)
- GI50 (SK-MEL-5): > 100 µM (inactive)
- GI50 (SK-OV-3): 33.8 µM (inactive)
- GI50 (SN12C): > 100 µM (inactive)
- GI50 (SNB-19): > 100 µM (inactive)
- GI50 (SNB-75): 26.2 µM (inactive)
- GI50 (SNB-78): > 100 µM (inactive)
- GI50 (SR): 52.7 µM (inactive)
- GI50 (SW-620): 77.8 µM (inactive)
- GI50 (TK-10): > 100 µM (inactive)
- GI50 (U-251): > 100 µM (inactive)
- GI50 (UACC-257): > 100 µM (inactive)
- GI50 (UACC-62): 87.1 µM (inactive)
- GI50 (UO-31): 59.7 µM (inactive)
- GI50 (XF498): 80.7 µM (inactive)
